The results in this text go back to patent US11254663B2 (BRISTOL-MYERS SQUIBB COMPANY, priority 2019, dated 2022).

SMILES strings stand for the structures.

The first assay deals with FXR (Homo sapiens (Human), UniProt Q96RI1). The experiment in a line: transient human FXR/Gal4-luciferase reporter assay. Format: cell-based.
Sequence of FXR (Q96RI1 262-486): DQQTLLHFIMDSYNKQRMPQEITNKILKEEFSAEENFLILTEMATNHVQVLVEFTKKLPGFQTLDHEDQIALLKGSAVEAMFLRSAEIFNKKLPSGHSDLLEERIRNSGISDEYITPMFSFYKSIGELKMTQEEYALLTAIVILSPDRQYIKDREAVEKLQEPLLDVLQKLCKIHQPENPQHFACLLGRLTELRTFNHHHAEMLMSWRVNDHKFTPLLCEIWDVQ
Conditions: not given
An outline of the steps:
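HEK293 cells stably carrying a 5×Gal4 response element–firefly luciferase reporter were transiently transfected overnight with a Gal4 DBD–human FXR LBD fusion plasmid. Compound was added in DMSO and cells were incubated overnight at 37 °C, 5% CO2. Activity was read as Steady-Glo luminescence.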
In turn, `CCOc1ccc(-c2ccnc(N(CC34CCC(c5noc(C(C)(C)C)n5)(CC3)CC4)C(=O)C34CC(F)(C3)C4)c2)cn1` [Example 536, N-((4-(5-(tert-butyl)-1,2,4-oxadiazol-3-yl)bicyclo[2.2.2]octan-1-yl)methyl)-N-(6-ethoxy-[3,4′-bipyridin]-2′-yl)-3-fluorobicyclo[1.1.1]pentane-1-carboxamide] gave an EC50 of 0.029 µM.
`Cc1nc2ccc(-c3ccnc(N(CC45CCC(c6noc(C(C)(C)C)n6)(CC4)CC5)C(=O)C45CC(F)(C4)C5)c3)cc2s1` [Example 537, N-((4-(5-(tert-butyl)-1,2,4-oxadiazol-3-yl)bicyclo[2.2.2]octan-1-yl)methyl)-3-fluoro-N-(4-(2-methylbenzo[d]thiazol-6-yl)pyridin-2-yl)bicyclo[1.1.1]pentane-1-carboxamide] displayed a concentration giving a half-maximal response (EC50) of 0.067 µM.
Still for that read-out and setting: the same measure for `COc1ncc(-c2ccnc(N(CC34CCC(c5noc(C(C)(C)C)n5)(CC3)CC4)C(=O)C34CC(F)(C3)C4)c2)cn1` [Example 538, N-((4-(5-(tert-butyl)-1,2,4-oxadiazol-3-yl)bicyclo[2.2.2]octan-1-yl)methyl)-3-fluoro-N-(4-(2-methoxypyrimidin-5-yl)pyridin-2-yl)bicyclo[1.1.1]pentane-1-carboxamide]: 0.121 µM; for `CC(C)(C)c1nc(C23CCC(CN(C(=O)C45CC(F)(C4)C5)c4cc(-c5cnc(C6CC6)nc5)ccn4)(CC2)CC3)no1` [Example 539, N-((4-(5-(tert-butyl)-1,2,4-oxadiazol-3-yl)bicyclo[2.2.2]octan-1-yl)methyl)-N-(4-(2-cyclopropylpyrimidin-5-yl)pyridin-2-yl)-3-fluorobicyclo[1.1.1]pentane-1-carboxamide]: 0.119 µM.
Same read-out and setting: the value for `CC(C)(C)c1nc(C23CCC(CN(C(=O)C45CC(F)(C4)C5)c4cc(-c5ccc6[nH]c(=O)oc6c5)ccn4)(CC2)CC3)no1` [Example 540, N-((4-(5-(tert-butyl)-1,2,4-oxadiazol-3-yl)bicyclo[2.2.2]octan-1-yl)methyl)-3-fluoro-N-(4-(2-oxo-2,3-dihydrobenzo[d]oxazol-6-yl)pyridin-2-yl)bicyclo[1.1.1]pentane-1-carboxamide] was 0.071 µM.
The same measure, in the same setting: the value for `CCOc1cnc(-c2ccnc(N(CC34CCC(c5noc(C(C)(C)C)n5)(CC3)CC4)C(=O)C34CC(F)(C3)C4)c2)nc1` [Example 542, N-((4-(5-(tert-butyl)-1,2,4-oxadiazol-3-yl)bicyclo[2.2.2]octan-1-yl)methyl)-N-(4-(5-ethoxypyrimidin-2-yl)pyridin-2-yl)-3-fluorobicyclo[1.1.1]pentane-1-carboxamide] was 0.022 µM; that for `CCc1cnc(-c2ccnc(N(CC34CCC(c5noc(C(C)(C)C)n5)(CC3)CC4)C(=O)C34CC(F)(C3)C4)c2)nc1` [Example 543, N-((4-(5-(tert-butyl)-1,2,4-oxadiazol-3-yl)bicyclo[2.2.2]octan-1-yl)methyl)-N-(4-(5-ethylpyrimidin-2-yl)pyridin-2-yl)-3-fluorobicyclo[1.1.1]pentane-1-carboxamide] was 0.014 µM; that for `CC(C)(C)c1nc(C23CCC(CN(C(=O)C45CC(F)(C4)C5)c4cc(-c5ccc(OC(F)F)cn5)ccn4)(CC2)CC3)no1` [Example 544, N-((4-(5-(tert-butyl)-1,2,4-oxadiazol-3-yl)bicyclo[2.2.2]octan-1-yl)methyl)-N-(5-(difluoromethoxy)-[2,4′-bipyridin]-2′-yl)-3-fluorobicyclo[1.1.1]pentane-1-carboxamide] was 0.02 µM.
`Cc1nc2ccc(-c3ccnc(N(CC45CCC(c6cc(C7CC7)nn6C)(CC4)CC5)C(=O)C45CC(F)(C4)C5)c3)cc2s1` [Example 546, N-((4-(3-cyclopropyl-1-methyl-1H-pyrazol-5-yl)bicyclo[2.2.2]octan-1-yl)methyl)-3-fluoro-N-(4-(2-methylbenzo[d]thiazol-6-yl)pyridin-2-yl)bicyclo[1.1.1]pentane-1-carboxamide] yielded a half-maximal effective concentration (EC50) of 0.048 µM.
`Cn1nc(C2CC2)cc1C12CCC(CN(C(=O)C34CC(F)(C3)C4)c3cc(-c4ccc(NS(C)(=O)=O)cc4)ccn3)(CC1)CC2` [Example 547, N-((4-(3-cyclopropyl-1-methyl-1H-pyrazol-5-yl)bicyclo[2.2.2]octan-1-yl)methyl)-3-fluoro-N-(4-(4-(methylsulfonamido)phenyl)pyridin-2-yl)bicyclo[1.1.1]pentane-1-carboxamide] returned a concentration giving a half-maximal response (EC50) of 0.251 µM.
Same read-out and setting: the value for `Cc1nc2ccc(-c3cccc(N(CC45CCC(c6nc(C7CC7)no6)(CC4)CC5)C(=O)C45CC(F)(C4)C5)c3)cc2s1` [Example 555, N-((4-(3-cyclopropyl-1,2,4-oxadiazol-5-yl)bicyclo[2.2.2]octan-1-yl)methyl)-3-fluoro-N-(3-(2-methylbenzo[d]thiazol-6-yl)phenyl)bicyclo[1.1.1]pentane-1-carboxamide] was 0.055 µM.

Still in this assay, the particulars now being: Gal4-hFXR fusion construct, HEK293 reporter cells; response relative to 8 μM GW-4064.
Take `CC(C)(C)c1nc(C23CCC(CN(C(=O)C45CC(F)(C4)C5)c4cc(-c5ncc(OC(F)F)cn5)ccn4)(CC2)CC3)no1` [Example 541, N-((4-(5-(tert-butyl)-1,2,4-oxadiazol-3-yl)bicyclo[2.2.2]octan-1-yl)methyl)-N-(4-(5-(difluoromethoxy)pyrimidin-2-yl)pyridin-2-yl)-3-fluorobicyclo[1.1.1]pentane-1-carboxamide]: the EC50 was 0.018 µM.
For the compound `Cn1nc(C2CC2)cc1C12CCC(CN(C(=O)C34CC(F)(C3)C4)c3cc(-c4ccc(OC(F)F)cc4)ccn3)(CC1)CC2` [Example 545, N-((4-(3-cyclopropyl-1-methyl-1H-pyrazol-5-yl)bicyclo[2.2.2]octan-1-yl)methyl)-N-(4-(4-(difluoromethoxy)phenyl)pyridin-2-yl)-3-fluorobicyclo[1.1.1]pentane-1-carboxamide], the concentration for a half-maximal effect (EC50) was 0.115 µM.
Same read-out and setting: the same measure for `CCOc1ncc(-c2ccnc(N(CC34CCC(c5nc(C6CC6)no5)(CC3)CC4)C(=O)C34CC(F)(C3)C4)c2)cn1` [Example 548, N-((4-(3-cyclopropyl-1,2,4-oxadiazol-5-yl)bicyclo[2.2.2]octan-1-yl)methyl)-N-(4-(2-ethoxypyrimidin-5-yl)pyridin-2-yl)-3-fluorobicyclo[1.1.1]pentane-1-carboxamide]: 0.111 µM.
The same measure, in the same setting: the value for `Cc1nc2ccc(-c3ccnc(N(CC45CCC(c6nc(C7CC7)no6)(CC4)CC5)C(=O)C45CC(F)(C4)C5)c3)cc2s1` [Example 549, N-((4-(3-cyclopropyl-1,2,4-oxadiazol-5-yl)bicyclo[2.2.2]octan-1-yl)methyl)-3-fluoro-N-(4-(2-methylbenzo[d]thiazol-6-yl)pyridin-2-yl)bicyclo[1.1.1]pentane-1-carboxamide] was 0.036 µM; that for `Cc1nc2ccc(-c3ccnc(N(CC45CCC(c6nc(C7CC7)no6)(CC4)CC5)C(=O)C45CC(F)(C4)C5)c3)cc2o1` [Example 550, N-((4-(3-cyclopropyl-1,2,4-oxadiazol-5-yl)bicyclo[2.2.2]octan-1-yl)methyl)-3-fluoro-N-(4-(2-methylbenzo[d]oxazol-6-yl)pyridin-2-yl)bicyclo[1.1.1]pentane-1-carboxamide] was 0.07 µM; that for `Cc1nc2ccc(-c3ccnc(N(CC45CCC(c6nc(C(C)(C)C)no6)(CC4)CC5)C(=O)C45CC(F)(C4)C5)c3)cc2s1` [Example 551, N-((4-(3-(tert-butyl)-1,2,4-oxadiazol-5-yl)bicyclo[2.2.2]octan-1-yl)methyl)-3-fluoro-N-(4-(2-methylbenzo[d]thiazol-6-yl)pyridin-2-yl)bicyclo[1.1.1]pentane-1-carboxamide] was 0.055 µM.
`CCOc1ncc(-c2cccc(N(CC34CCC(c5ncc(OC)cn5)(CC3)CC4)C(=O)C34CC(F)(C3)C4)c2)cn1` [Example 552, N-(3-(2-ethoxypyrimidin-5-yl)phenyl)-3-fluoro-N-((4-(5-methoxypyrimidin-2-yl)bicyclo[2.2.2]octan-1-yl)methyl)bicyclo[1.1.1]pentane-1-carboxamide]: the concentration for a half-maximal effect (EC50) is 0.359 µM. Compared with the last compound, the EC50 is about 6.5-fold higher.
Consider `CCOc1ncc(-c2cccc(N(CC34CCC(c5nc(C(C)(C)C)no5)(CC3)CO4)C(=O)C34CC(F)(C3)C4)c2)cn1` [Example 553, N-((4-(3-(tert-butyl)-1,2,4-oxadiazol-5-yl)-2-oxabicyclo[2.2.2]octan-1-yl)methyl)-N-(3-(2-ethoxypyrimidin-5-yl)phenyl)-3-fluorobicyclo[1.1.1]pentane-1-carboxamide], for which a half-maximal response (EC50) required 1.59 µM.
On the same count and under the same terms, the value for `Cc1nc2ccc(-c3cccc(N(CC45CCC(c6nc(C7CC7)no6)(CC4)CC5)C(=O)C4CC(F)(F)C4)c3)cc2s1` [Example 554, N-((4-(3-cyclopropyl-1,2,4-oxadiazol-5-yl)bicyclo[2.2.2]octan-1-yl)methyl)-3,3-difluoro-N-(3-(2-methylbenzo[d]thiazol-6-yl)phenyl)cyclobutane-1-carboxamide] was 0.232 µM; that for `COc1ccc(C23CCC(CN(C(=O)C45CC(F)(C4)C5)c4cccc(-c5ccc6nc(C)sc6c5)c4)(CC2)CO3)cc1` [Example 556, 3-Fluoro-N-((1-(4-methoxyphenyl)-2-oxabicyclo[2.2.2]octan-4-yl)methyl)-N-(3-(2-methylbenzo[d]thiazol-6-yl)phenyl)bicyclo[1.1.1]pentane-1-carboxamide] was 0.816 µM.
Still for that read-out and setting: the same measure for `COc1ccc(C23CCC(CN(C(=O)C4CC(F)(F)C4)c4cccc(-c5ccc6nc(C)sc6c5)c4)(CC2)CO3)cc1` [Example 557, 3,3-Difluoro-N-((1-(4-methoxyphenyl)-2-oxabicyclo[2.2.2]octan-4-yl)methyl)-N-(3-(2-methylbenzo[d]thiazol-6-yl)phenyl)cyclobutane-1-carboxamide]: 1.58 µM.
Take `COc1ncc(C23CCC(CN(C(=O)C45CC(F)(C4)C5)c4cccc(-c5ccc6nc(C)sc6c5)c4)(CC2)CO3)cn1` [Example 558, 3-Fluoro-N-((1-(2-methoxypyrimidin-5-yl)-2-oxabicyclo[2.2.2]octan-4-yl)methyl)-N-(3-(2-methylbenzo[d]thiazol-6-yl)phenyl)bicyclo[1.1.1]pentane-1-carboxamide]: the half-maximal effective concentration (EC50) was 0.561 µM.
